“And” between values parts separate entries of the source, which are not always exact repeats. Equal values may be shown once.
Legend:
Molm-13 cells = details: seven days post transduction; cited from earlier work
Brd4 ET = Brd4 ET (Homo sapiens, UniProt O60885); details: peptide construct, read-out: binding affinity; cited from earlier work
C4-2B MDVR cells [1] = assay: C4-2B MDVR (enzalutamide resistant) cell growth, cell number; type: cell-based; details: for inhibition of cell growth (cell number): 5 μM
Procedure: (§1) Enzalutamide resistant C4-2B MDVR cells and darolutamide resistant C4-2B DaroR cells were treated with candidate compounds at 5 μM. BET (I-BET151; (R)-7-(3,5-dimethylisoxazol-4-yl)-8-methoxy-1-(1-(pyridin-2-yl)ethyl)-1,3-dihydro-2H-imidazo[4,5-c]quinolin-2-one; CAS RN 1300031-49-5) was used as the positive control at 5 μM. The cell number was determined. Only piperazine BET protein inhibitor 10 and the BET control inhibited both C4-2B MDVR and C4-2B DaroR cell growth at a concentration of 5 μM. Other compounds from the screen were not observed to effect cell growth under the test conditions.
C4-2B MDVR cells were treated with increasing doses of piperazine BET protein inhibitor 10 and compound 8 (8-(1-isopropyl-6-methyl-1H-pyrazolo[3,4-b]pyridine-5-carbonyl)-1,3-diazaspiro[4.5]decane-2,4-dione) as indicated. The cell number was determined after 3-day treatment.
(§2) C4-2B and C4-2B MDVR Cells were plated at 20,000 cells per well in 24-well plates and treated as indicated for 6 days. Total cell number was assessed by Coulter Counter. * indicates significant difference from control for each cell line, p<0.05.
C4-2B MDVR cells were plated at 20,000 cells per well in 24-well plates and treated for 5 days with the indicated compounds. The total cell number was determined and expressed as percentage of control. * indicates a significant difference from control, p<0.05.

C4-2B cells = assay: C4-2B cell growth, total cell number by Coulter Counter; type: cell-based; details: 1-40 μM, 6 days
Procedure: as §2

C4-2B MDVR cells [2] = assay: Growth inhibition in combination with enzalutamide, coefficient of drug interaction; type: cell-based; details: for CDI: with enzalutamide; for CDI / CDI with Enzalutamide: C4-2B MDVR cells; for CDI with Enzalutamide: treated for 5 days; for 3 Day CDI / 5 Day CDI: with enzalutamide (MDV)
Procedure: C4-2B AbiR: abiraterone resistance; C4-2B ApaR: apalutamide resistance; C4-2B DaroR: darolutamide resistance; C4-2B MDVR: enzalutamide resistance.
Piperidine BET protein inhibitor 2 was also found to synergize with enzalutamide in inhibiting the growth of enzalutamide-resistant C4-2b MDVR cells, as shown in FIG. 6A and FIG. 6B.
Organoids generated from enzalutamide resistant LuCaP35CR PDX tumors were treated with either piperazine BET protein inhibitor 10 at concentrations as indicated (A) or in combination with enzalutamide 20 μM(C) for 7 days; representative organoids were imaged under the fluorescence microscope after stained by LIVE/DEAD Viability/Cytotoxicity Kit (Invitrogen MP03224). Organoid viability was measured using CellTiter Glo (Promega Catelog#G9681) for piperazine BET protein inhibitor 10 single treatment (B) and for combinational treatment with enzalutamide (D, E). […] Blue indicates synergy while red indicates antagonism between drugs. The coefficient of drug interaction (CDI) is calculated as follows: CDI=AB/(A×B). A is growth inhibition effect of treatment with the BET protein inhibitor. B is growth inhibition effect of enzalutamide treatment. AB is the growth inhibition effect of the combination treatment. […] The coefficient of drug interaction (CDI) of 20 μM enzalutamide with 0.5 μM BET protein inhibitor combination treatment were 0.97 and 0.91 respectively in LuCaP35CR organoids, evidencing a synergistic effect (CDI=0.4222, <1).
C4-2B MDVR […], and then total cell numbers were determined. * indicates significant difference from control and ** indicates significant difference between Enza drug treatment and the combination treatment; p<0.05.

MYC signaling pathway = assay: Analysis of total RNA isolated from treated cells; type: cell-based; details: data not shown
BRD4 = molecular target: T1, BRD4 (Homo sapiens, UniProt O60885); assay: Western blot of BRD4 expression in C4-2B MDVR cells; type: cell-based; details: increasing doses, 2 days
T1 construct: endogenous in cells; host or cells: C4-2B MDVR
Procedure: (§3) C4-2B MDVR cells were treated with piperazine BET protein inhibitor 10 and the I-BET151 control at increasing doses for 2 days. The cell lysates were subjected to Western blot analysis for BRD4, AR-FL, and cMYC expression. As shown here, both piperazine BET protein inhibitor 10 and I-BET151 inhibited BRD4, AR-FL, and cMYC protein expression.

C4-2B ApaR cells = assay: Growth inhibition in combination with apalutamide, coefficient of drug interaction; type: cell-based; details: with apalutamide (Apa)
AR-FL = assay: Western blot of AR-FL expression in C4-2B MDVR cells; type: cell-based; details: increasing doses, 2 days
Procedure: as §3

[3] = system: LuCaP49 prostate cancer PDX; assay: LuCaP49 prostate cancer PDX tumor growth in mice; type: in vivo; details: 60 mg/kg, i.p., daily, 5 days/week
Procedure: Mice bearing tumors from LuCaP49 prostate cancer PDX were treated with BETi-10 (60 mg/kg, i.p.) daily, 5 days/week. Tumor volume were measured and relative fold changes were calculated compared to the day 0 treatment.

C4-2B DaroR cells [4] = assay: C4-2B DaroR (darolutamide resistant) cell growth, cell number; type: cell-based; details: 5 μM
Procedure: as §1

C4-2B DaroR cells [5] = assay: Growth inhibition in combination with darolutamide, coefficient of drug interaction; type: cell-based; details: with darolutamide (Daro)
C4-2B AbiR cells = assay: Growth inhibition in combination with abiraterone, coefficient of drug interaction; type: cell-based; details: with abiraterone (Abi)
cMYC = cMYC expression in C4-2B MDVR cells; type: cell-based; details: increasing doses, 2 days, Western blot
Procedure: as §3

Q: For “17 amino acid region TWRVQRSQNPLKIRKTR(389′-405′) (SEQ ID NO:1) of MLV IN, minimal binding region for Brd4 ET [EBM]”, which “reduction in cellular proliferation compared to vector control cells” value (Molm-13 cells) is on record?
A: Its value is roughly 10 fold.

Q: What about the Kd (Brd4 ET) of the same compound?
A: Its Kd is roughly 160 nM.

Q: Which “inhibition of cell growth (total cell number)” value (C4-2B MDVR cells [1]; 1-40 μM, 6 days) does the source give for `CC(C)n1nccc1NC(=O)C1CCCN(C(=O)c2ccc(Cl)c(Cl)c2)C1` (stereo not drawn) [Compound 2, 1-(3,4-dichlorobenzoyl)-N-(1-isopropyl-1H-pyrazol-5-yl)piperidine-3-carboxamide] here?
A: Its value is “inhibit the growth of C4-2B and C4-2B MDVR cells in a dose-dependent manner”.

Q: And the “inhibition of cell growth (total cell number)” value (C4-2B cells)?
A: The value was “inhibit the growth of C4-2B and C4-2B MDVR cells in a dose-dependent manner”.

Q: And the CDI (C4-2B MDVR cells [2]; 3 Day, 10 μM 2)?
A: Its CDI is 0.751.

Q: What about the CDI (C4-2B MDVR cells [2]; 3 Day, 20 μM 2) of the same compound?
A: The CDI was 0.8105.

Q: And the CDI (C4-2B MDVR cells [2]; 5 Day, 10 μM 2)?
A: Its CDI is 0.792.

Q: And the CDI (C4-2B MDVR cells [2]; 5 Day, 20 μM 2)?
A: The CDI was 0.702.

Q: Which “growth inhibition at increasing doses” value (C4-2B MDVR cells [1]; 3-day treatment) does the source give for `Cc1nc2c(cnn2C(C)C)cc1C(=O)C1CCC2(CC1)NC(=O)NC2=O` (stereo not drawn) [Compound 8, 8-(1-isopropyl-6-methyl-1H-pyrazolo[3,4-b]pyridine-5-carbonyl)-1,3-diazaspiro[4.5]decane-2,4-dione] here?
A: The value was “no growth inhibition was observed”.

Q: Which results are given for `O=C(Nc1cccc(C(=O)N2CCN(CCOc3ccc(Cl)cc3)CC2)c1)C1CCCO1` (stereo not drawn) [Compound 10, N-(3-(4-(2-(4-chlorophenoxy)ethyl)piperazine-1-carbonyl)phenyl)tetrahydrofuran-2-carboxamide]?
A: inhibition of cell growth (cell number) (C4-2B MDVR cells [1]): inhibited; growth inhibition at increasing doses (C4-2B MDVR cells [1]; 3-day treatment): inhibited growth of C4-2B MDVR cells in a dose-dependent manner; IC50 (C4-2B MDVR cells [1]; 72 h, 3-day treatment): 1700 to 2100 nM; inhibition of the MYC signaling pathway (MYC signaling pathway): inhibit the MYC signaling pathway; BRD4 protein expression (BRD4): inhibited; CDI with Enzalutamide (C4-2B MDVR cells [2]): 0.76; 3 Day CDI (C4-2B MDVR cells [2]; 1 μM (10)): 0.6791; 5 Day CDI (C4-2B MDVR cells [2]; 1 μM (10)): 0.3464; 3 Day CDI (C4-2B MDVR cells [2]; 2.5 μM (10)): 0.5693; 5 Day CDI (C4-2B MDVR cells [2]; 2.5 μM (10)): 0.26 and 0.2628; 3 Day CDI (C4-2B ApaR cells; 1 μM (10)): 0.7981; 5 Day CDI (C4-2B ApaR cells; 1 μM (10)): 0.639; 3 Day CDI (C4-2B ApaR cells; 2.5 μM (10)): 0.7358; 5 Day CDI (C4-2B ApaR cells; 2.5 μM (10)): 0.54 and 0.5381; AR-FL protein expression (AR-FL): inhibited; tumor growth (tumor volume, relative fold change to day 0) [3]: inhibit the growth; inhibition of cell growth (cell number) (C4-2B DaroR cells [4]): inhibited; 3 Day CDI (C4-2B DaroR cells [5]; 1 μM (10)): 0.6607; 5 Day CDI (C4-2B DaroR cells [5]; 1 μM (10)): 0.4574; 3 Day CDI (C4-2B DaroR cells [5]; 2.5 μM (10)): 0.6111; 5 Day CDI (C4-2B DaroR cells [5]; 2.5 μM (10)): 0.38 and 0.3762; 3 Day CDI (C4-2B AbiR cells; 1 μM (10)): 1.019; 5 Day CDI (C4-2B AbiR cells; 1 μM (10)): 1.362; 3 Day CDI (C4-2B AbiR cells; 2.5 μM (10)): 0.914; 5 Day CDI (C4-2B AbiR cells; 2.5 μM (10)): 0.98 and 0.9835; cMYC protein expression (cMYC): inhibited

Q: With `O=C(Nc1cccc(C(=O)N2CCN(CCOc3ccc(Cl)cc3)CC2)c1)c1ccco1` [Compound 11, N-(3-(4-(2-(4-chlorophenoxy)ethyl)piperazine-1-carbonyl)phenyl)furan-2-carboxamide] as the compound, how does the “inhibition of the MYC signaling pathway” value (MYC signaling pathway) read?
A: Its value is “inhibit the MYC signaling pathway”.

Q: What about the “CDI with Enzalutamide” value (C4-2B MDVR cells [2]) of the same compound?
A: Its value is 0.90.

Q: For `N[C@@H](Cc1c[nH]c2ccccc12)C(=O)Nc1cccc(C(=O)N2CCN(CCOc3ccc(Cl)cc3)CC2)c1` [Compound 12, (S)-2-Amino-N-(3-(4-(2-(4-chlorophenoxy)ethyl)piperazine-1-carbonyl)phenyl)-3-(1H-indol-3-yl)propenamide], which “CDI with Enzalutamide” value (C4-2B MDVR cells [2]) is on record?
A: The value was 0.90.

Q: With `CC(C)(C)OC(=O)N[C@@H](Cc1c[nH]c2ccccc12)C(=O)Nc1cccc(C(=O)N2CCN(CCOc3ccc(Cl)cc3)CC2)c1` [Compound 13] as the compound, how does the “CDI with Enzalutamide” value (C4-2B MDVR cells [2]) read?
A: The value was 0.81.

Q: Which “CDI with Enzalutamide” value (C4-2B MDVR cells [2]) does the source give for `N[C@@H](Cc1c[nH]cn1)C(=O)Nc1cccc(C(=O)N2CCN(CCOc3ccc(Cl)cc3)CC2)c1` [Compound 14, (S)-2-Amino-N-(3-(4-(2-(4-chlorophenoxy)ethyl)piperazine-1-carbonyl)phenyl)-3-(1H-imidazol-4-yl)propenamide] here?
A: The value was 0.82.

Q: With `COc1cc2c(cc1-c1c(C)noc1C)ncc1[nH]c(=O)n([C@H](C)c3ccccn3)c12` [I-BET151, (R)-7-(3,5-dimethylisoxazol-4-yl)-8-methoxy-1-(1-(pyridin-2-yl)ethyl)-1,3-dihydro-2H-imidazo[4,5-c]quinolin-2-one, reference compound] as the compound, how does the “inhibition of cell growth (cell number)” value (C4-2B MDVR cells [1]) read?
A: Its value is “inhibited”.

Q: What about the BRD4 protein expression (BRD4) of the same compound?
A: The BRD4 protein expression was “inhibited”.

Q: What about the AR-FL protein expression (AR-FL) of the same compound?
A: Its AR-FL protein expression is “inhibited”.

Q: And the “inhibition of cell growth (cell number)” value (C4-2B DaroR cells [4])?
A: The value was “inhibited”.

Q: What about the cMYC protein expression (cMYC) of the same compound?
A: Its cMYC protein expression is “inhibited”.

Reference: patent publication US20240189304A1, “BET PROTEIN INHIBITORS AND USE THEREOF” (The Regents of the University of California, priority 2021, published 2024)
